Source: US5792831A, “Analogues of magainin peptides containing D-amino acids” (priority 1994, dated 1998)
≈ marks a conversion by molar mass, not a printed value. Blank lines part the entries; values can stand above or below the compound they belong to. Square brackets hold non-standard residues; d marks the D form. Peptide text beside a SMILES is read from it. * marks the point of attachment. Octanoyl = CCCCCCCC(=O)*

Experiments:
Format in all cases: cell-based
[1] = test system: melanoma cell line WM852; test: Melanoma growth reduction (Example 5); settings: for % Growth Reduction (7 days) WM852-2%: 2% tumor media; for % Growth Reduction (7 days) WM852-PF: PF media
Protocol: (§1) Melanoma cell lines WM-239-A (metastatic melanoma), WM278 (primary melanoma), WM793 (primary melanoma) and WM1158 (metastatic melanoma) were seeded in 24-well plates at a concentration of 7.5×10^4 cells/ml containing 2% tumor medium.
(§2) Peptides (SEQ ID NO:6) and D-(SEQ ID NO:6), in which each amino acid residue is a D-amino residue or a glycine residue, were frozen at -20° C. in […] aliquots at a concentration of 25 mg/ml. Each peptide was then dissolved in sterile distilled water at a dilution of 1:1,000 or 1:5,000 to provide peptide concentrations of 25 μg/ml or 5 μg/ml, respectively. The peptides at the 25 μg/ml or 5 μg/ml concentrations were then added to the plates containing the melanoma cells. The amount of ^3 H-thymidine incorporation for each well was taken on days 1, 3, and 7.
(§3) Peptides (SEQ ID NO:10) and D-(SEQ ID NO:10), in which each amino acid is a D-amino acid residue, are tested for % growth reduction of melanoma cell lines WM852 (grown in 2% tumor media or PF media), WM983A (grown in 2% tumor media or PF media), WM793 (grown in 2% tumor media), and WM1985 (grown in PF media) according to the procedure of Example 4, except that only a concentration of 25 μg/ml was employed for (SEQ ID NO:10), and concentrations of 1.0, 2.5, 5.0, 10.0, and 25.0 μg/ml were employed for D-(SEQ ID NO:10).

[2] = test system: melanoma cell line WM1985; test: Melanoma growth reduction (Example 5); settings: PF media
Protocol: as §1, §2, §3

[3] = test system: melanoma cell line WM793; test: Melanoma growth reduction (Example 5); settings: 2% tumor media
Protocol: as §1, §2, §3

[4] = test system: melanoma cell line WM983A; test: Melanoma growth reduction (Example 5); settings: for % Growth Reduction (7 days) WM-983A-2%: 2% tumor media; for % Growth Reduction (7 days) WM983A-PF: PF media
Protocol: as §1, §2, §3

[5] = test system: C. albicans; test: MIC assay, microtiter broth dilution (NCCLS M7-T2); settings: Mueller Hinton broth, 16-20 hours at 37° C.
Protocol: (§4) The procedure for the following antibacterial assay is based upon the guidelines of the National Committee for Clinical Laboratory Standards, Document M7-T2, Volume 8, No. 8, 1988.
(§5) were prepared at a concentration of 512 μpg/ml in sterile deionized distilled water and stored at -70° C.
(§6) 1.5×10^5 CFUs/ml of either S. aureus ATCC 25923, E. coli ATCC 25922, P. aeruginosa ATCC 27853, or C. albicans were added to the wells in full strength Mueller Hinton broth (BBL 11443) from a mid-log culture. The inoculums are standarized spectrophotometrically at 600 nm and is verified by colony counts. The plates are incubated for 16-20hours at 37° C., and the minimal inhibitory concentration (MIC) for each peptide is determined. Minimal inhibitory concentration is defined as the lowest concentration of peptide which produces a clear well in the microtiter plate.

[6] = test system: P. aeruginosa ATCC 27853; test: Antibacterial MIC assay, microtiter broth dilution (NCCLS M7-T2); settings: Mueller Hinton broth, 16-20 hours at 37° C.
Protocol: as §4, §5, §6

[7] = test system: E. coli ATCC 25922; test: as above; settings: Mueller Hinton broth, 16-20 hours at 37° C.
Protocol: as §4, §5, §6

[8] = test system: S. aureus ATCC 25923; test: as above; settings: Mueller Hinton broth, 16-20 hours at 37° C.
Protocol: as §4, §5, §6

Compound: CC(C)C[C@@H](NC(=O)[C@@H](CCCCN)NC(=O)[C@@H](CCCCN)NC(=O)[C@@H](CC(C)C)NC(=O)[C@@H](CC(C)C)NC(=O)[C@@H](CCCCN)NC(=O)[C@@H](CCCCN)NC(=O)[C@@H](CC(C)C)NC(=O)[C@@H](CCCCN)NC(=O)[C@@H](CCCCN)NC(=O)[C@@H](CC(C)C)NC(=O)[C@@H](CC(C)C)NC(=O)[C@@H](CCCCN)NC(=O)[C@H](N)CCCCN)C(N)=O [D-(SEQ ID NO:10)] (H-[dK][dK][dL][dL][dK][dK][dL][dK][dK][dL][dL][dK][dK][dL]-NH2)
% Growth Reduction (7 days) WM852-2% ([1]; dose 1.0 μg/ml): 3.0%
% Growth Reduction (7 days) WM852-PF ([1]; dose 1.0 μg/ml): 2.9%
% Growth Reduction (7 days) WM852-2% ([1]; dose 2.5 μg/ml): 5.4%
% Growth Reduction (7 days) WM852-PF ([1]; dose 2.5 μg/ml): 22.9%
% Growth Reduction (7 days) WM852-2% ([1]; dose 5.0 μg/ml): 8.8%
% Growth Reduction (7 days) WM852-PF ([1]; dose 5.0 μg/ml): 32.4%
% Growth Reduction (7 days) WM852-2% ([1]; dose 10.0 μg/ml): 16.2%
% Growth Reduction (7 days) WM852-PF ([1]; dose 10.0 μg/ml): 80.6%
% Growth Reduction (7 days) WM852-2% ([1]; dose 25 μg/ml): 84.7%
% Growth Reduction (7 days) WM852-PF ([1]; dose 25 μg/ml): 91.1%
% Growth Reduction (7 days) WM1985-PF ([2]; dose 1.0 μg/ml): 5.5%
% Growth Reduction (7 days) WM1985-PF ([2]; dose 2.5 μg/ml): 23.6%
% Growth Reduction (7 days) WM1985-PF ([2]; dose 5.0 μg/ml): 52.1%
% Growth Reduction (7 days) WM1985-PF ([2]; dose 10.0 μg/ml): 84.3%
% Growth Reduction (7 days) WM1985-PF ([2]; dose 25 μg/ml): 92.6%
% Growth Reduction (7 days) WM793-2% ([3]; dose 2.5 μg/ml): 18.2%
% Growth Reduction (7 days) WM793-2% ([3]; dose 5.0 μg/ml): 0%
% Growth Reduction (7 days) WM793-2% ([3]; dose 10.0 μg/ml): 12.3%
% Growth Reduction (7 days) WM793-2% ([3]; dose 25 μg/ml): 84.9%
% Growth Reduction (7 days) WM-983A-2% ([4]; dose 1.0 μg/ml): 0%
% Growth Reduction (7 days) WM983A-PF ([4]; dose 1.0 μg/ml): 3.3%
% Growth Reduction (7 days) WM-983A-2% ([4]; dose 2.5 μg/ml): 0%
% Growth Reduction (7 days) WM983A-PF ([4]; dose 2.5 μg/ml): 13.9%
% Growth Reduction (7 days) WM-983A-2% ([4]; dose 5.0 μg/ml): 0%
% Growth Reduction (7 days) WM983A-PF ([4]; dose 5.0 μg/ml): 29.8%
% Growth Reduction (7 days) WM-983A-2% ([4]; dose 10.0 μg/ml): 13.8%
% Growth Reduction (7 days) WM983A-PF ([4]; dose 10.0 μg/ml): 84.9%
% Growth Reduction (7 days) WM-983A-2% ([4]; dose 25 μg/ml): 71.3%
% Growth Reduction (7 days) WM983A-PF ([4]; dose 25 μg/ml): 90.0%

MIC C. albicans [5]: 32 mg/L (≈ 21.6 µM)
MIC P. aeruginosa [6]: 4 mg/L (≈ 2.71 µM)
MIC E. coli [7]: 8 mg/L (≈ 5.41 µM)
MIC S. aureus [8]: 4 mg/L (≈ 2.71 µM)
Compound: CCCCCCCC(=O)N[C@@H](CC(C)C)C(=O)N[C@@H](CCCCN)C(=O)N[C@@H](CCCCN)C(=O)N[C@@H](CC(C)C)C(=O)N[C@@H](CC(C)C)C(=O)N[C@@H](CCCCN)C(=O)N[C@@H](CCCCN)C(=O)N[C@@H](CC(C)C)C(=O)N[C@@H](CCCCN)C(=O)N[C@@H](CCCCN)C(=O)N[C@@H](CC(C)C)C(N)=O [Oct-(SEQ ID NO:11)-NH2, reference compound] (Octanoyl-LKKLLKKLKKL-NH2)

MIC C. albicans [5]: 32 mg/L (≈ 21.6 µM)
MIC P. aeruginosa [6]: 4 mg/L (≈ 2.71 µM)
MIC E. coli [7]: 8 mg/L (≈ 5.41 µM)
MIC S. aureus [8]: 4 mg/L (≈ 2.71 µM)
Compound: CCCCCCCC(=O)N[C@H](CC(C)C)C(=O)N[C@H](CCCCN)C(=O)N[C@H](CCCCN)C(=O)N[C@H](CC(C)C)C(=O)N[C@H](CC(C)C)C(=O)N[C@H](CCCCN)C(=O)N[C@H](CCCCN)C(=O)N[C@H](CC(C)C)C(=O)N[C@H](CCCCN)C(=O)N[C@H](CCCCN)C(=O)N[C@H](CC(C)C)C(N)=O [Oct-D-(SEQ ID NO:11)-NH2] (Octanoyl-[dL][dK][dK][dL][dL][dK][dK][dL][dK][dK][dL]-NH2)
